The source of these data is BindingDB's records for doi:10.1021/jm051056c (Targegen, 2007).

In this assay the target is Phosphatidylinositol 4,5-bisphosphate 3-kinase catalytic subunit gamma isoform (Homo sapiens, UniProt P48736). Description: Determination of PI3K Activity. Conditions: pH 7.4; 22 °C.

What is called IC50 is the midpoint of a concentration-inhibition curve. Low readings indicate greater potency in that assay, high ones weaker potency in that assay.

Phosphatidylinositol 4,5-bisphosphate 3-kinase catalytic subunit gamma isoform, sequence (P48736 whole entry, canonical isoform): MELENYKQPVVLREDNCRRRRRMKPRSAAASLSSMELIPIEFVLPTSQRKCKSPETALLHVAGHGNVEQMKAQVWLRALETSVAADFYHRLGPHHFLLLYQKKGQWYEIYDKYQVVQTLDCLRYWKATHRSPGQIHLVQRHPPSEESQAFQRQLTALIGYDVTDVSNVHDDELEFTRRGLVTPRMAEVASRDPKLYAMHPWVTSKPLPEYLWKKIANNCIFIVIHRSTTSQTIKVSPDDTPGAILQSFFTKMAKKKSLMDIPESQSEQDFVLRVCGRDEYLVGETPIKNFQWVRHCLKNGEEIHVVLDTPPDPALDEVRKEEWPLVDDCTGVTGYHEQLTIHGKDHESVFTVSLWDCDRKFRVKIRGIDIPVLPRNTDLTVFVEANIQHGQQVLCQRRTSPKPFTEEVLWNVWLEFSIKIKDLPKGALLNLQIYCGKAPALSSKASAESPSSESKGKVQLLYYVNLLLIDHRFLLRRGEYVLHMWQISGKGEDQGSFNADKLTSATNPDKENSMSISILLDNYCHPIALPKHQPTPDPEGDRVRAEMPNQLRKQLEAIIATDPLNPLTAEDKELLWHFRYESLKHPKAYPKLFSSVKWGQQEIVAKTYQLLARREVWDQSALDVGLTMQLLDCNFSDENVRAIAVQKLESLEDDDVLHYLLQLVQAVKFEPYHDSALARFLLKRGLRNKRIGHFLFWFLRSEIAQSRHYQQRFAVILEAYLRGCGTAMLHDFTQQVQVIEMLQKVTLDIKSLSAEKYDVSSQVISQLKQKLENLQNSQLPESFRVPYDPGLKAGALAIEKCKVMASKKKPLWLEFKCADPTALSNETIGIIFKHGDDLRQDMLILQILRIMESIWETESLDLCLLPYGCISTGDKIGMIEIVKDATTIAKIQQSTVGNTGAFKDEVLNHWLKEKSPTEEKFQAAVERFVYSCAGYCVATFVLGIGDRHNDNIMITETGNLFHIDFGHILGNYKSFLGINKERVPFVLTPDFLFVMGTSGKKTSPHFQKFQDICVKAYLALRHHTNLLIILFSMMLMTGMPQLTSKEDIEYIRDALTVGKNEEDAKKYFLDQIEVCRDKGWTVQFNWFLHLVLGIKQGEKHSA

`COc1cccc(-c2nc3nc(N)nc(N)c3nc2-c2cccc(OC)c2)c1` [6,7-bis(3-methoxyphenyl)pteridine-2,4-diamine] returned an IC50 of 12.6 µM.
